In ChEMBL document CHEMBL2029241, “Synthesis, characterization and in vitro anti-tumor activities of matrine derivatives” (Bioorg Med Chem Lett, 2012):
Values after ≈ are worked out from the molar mass of the structure shown.

Tests used:
Assay type in all cases: functional, cell-based; call rule not given here
[1] = Cytotoxicity against human HEP7402 cells after 48 hrs by MTT assay
B16-F10 = test: Cytotoxicity against mouse B16F10 cells after 48 hrs by MTT assay
A549 = test: Cytotoxicity against human A549 cells after 48 hrs by MTT assay
[2] = Cytotoxicity against human TW03 cells after 48 hrs by MTT assay
[3] = Homo sapiens, 48 h, read-out: IC50
[4] = Mus musculus, B16-F10, 48 h, read-out: IC50
[5] = Homo sapiens, A549, 48 h, read-out: IC50
[6] = Homo sapiens, TW03, 48 h, read-out: IC50

O=C(c1cccs1)C1CC[C@@H]2[C@H]3CCCN4CCC[C@@H](CN2C1=O)[C@@H]34 (stereo partly drawn)
IC50 [1, 3]: 7.5 µg/mL (≈ 20.9 µM) | IC50 (B16-F10; [4]): 4.5 µg/mL (≈ 12.6 µM) | IC50 (A549; [5]): 2.3 µg/mL (≈ 6.42 µM) | IC50 [2, 6]: 8.1 µg/mL (≈ 22.6 µM)

O=C1/C(=C/c2ccc([N+](=O)[O-])cc2)CC[C@@H]2[C@H]3CCCN4CCC[C@@H](CN12)[C@@H]34
IC50 [1, 3]: 8.7 µg/mL (≈ 22.8 µM) | IC50 (B16-F10; [4]): 2.8 µg/mL (≈ 7.34 µM) | IC50 (A549; [5]): 6.2 µg/mL (≈ 16.3 µM) | IC50 [2, 6]: 3.7 µg/mL (≈ 9.7 µM)

O=C1/C(=C/c2ccccc2)CC[C@@H]2[C@H]3CCCN4CCC[C@@H](CN12)[C@@H]34
IC50 [1, 3]: 10 µg/mL (≈ 29.7 µM) | IC50 (B16-F10; [4]): 5.7 µg/mL (≈ 16.9 µM) | IC50 (A549; [5]): 4.6 µg/mL (≈ 13.7 µM) | IC50 [2, 6]: 2.4 µg/mL (≈ 7.13 µM)

COc1ccc(/C=C2\CC[C@@H]3[C@H]4CCCN5CCC[C@@H](CN3C2=O)[C@@H]45)cc1
IC50 [1, 3]: 0.5 µg/mL (≈ 1.36 µM) | IC50 (B16-F10; [4]): 0.8 µg/mL (≈ 2.18 µM) | IC50 (A549; [5]): 0.6 µg/mL (≈ 1.64 µM) | IC50 [2, 6]: 1.2 µg/mL (≈ 3.27 µM)

C1CCN2C[C@@H]3CCCN4CCC[C@@H]([C@H]34)[C@H]2C1
IC50 [1]: Not Active | IC50 (B16-F10; b16-f10): Not Active | IC50 (A549; a549): Not Active | IC50 ([2]; tw03): Not Active

COc1cccc(/C=C2\CC[C@@H]3[C@H]4CCCN5CCC[C@@H](CN3C2=O)[C@@H]45)c1
IC50 [1, 3]: 3.4 µg/mL (≈ 9.28 µM) | IC50 (B16-F10; [4]): 8.7 µg/mL (≈ 23.7 µM) | IC50 (A549; [5]): 2.3 µg/mL (≈ 6.28 µM) | IC50 [2, 6]: 6.4 µg/mL (≈ 17.5 µM)

COc1cc(/C=C2\CC[C@@H]3[C@H]4CCCN5CCC[C@@H](CN3C2=O)[C@@H]45)cc(OC)c1OC
IC50 [1, 3]: 7.8 µg/mL (≈ 18.3 µM) | IC50 (B16-F10; [4]): 9.8 µg/mL (≈ 23 µM) | IC50 (A549; [5]): 3.8 µg/mL (≈ 8.91 µM) | IC50 [2, 6]: 5.5 µg/mL (≈ 12.9 µM)

O=C1/C(=C/c2ccc(Cl)c(Cl)c2)CC[C@@H]2[C@H]3CCCN4CCC[C@@H](CN12)[C@@H]34
IC50 [1, 3]: 11.3 µg/mL (≈ 27.9 µM) | IC50 (B16-F10; [4]): 6.5 µg/mL (≈ 16 µM) | IC50 (A549; [5]): 4.7 µg/mL (≈ 11.6 µM) | IC50 [2, 6]: 6.3 µg/mL (≈ 15.5 µM)

O=C1/C(=C/c2cccc(F)c2)CC[C@@H]2[C@H]3CCCN4CCC[C@@H](CN12)[C@@H]34
IC50 [1, 3]: 1.5 µg/mL (≈ 4.23 µM) | IC50 (B16-F10; [4]): 2.7 µg/mL (≈ 7.62 µM) | IC50 (A549; [5]): 3.4 µg/mL (≈ 9.59 µM) | IC50 [2, 6]: 2.2 µg/mL (≈ 6.21 µM)

O=C1CCC[C@@H]2[C@H]3CCCN4CCC[C@@H](CN12)[C@@H]34 [MATRINE]
IC50 [1, 3]: 15.3 µg/mL (≈ 61.6 µM) | IC50 (B16-F10; [4]): 17 µg/mL (≈ 68.4 µM) | IC50 (A549; [5]): 9.7 µg/mL (≈ 39.1 µM) | IC50 [2, 6]: 16.3 µg/mL (≈ 65.6 µM)

O=C(O)CCCC1NCC2CCCN3CCCC1C23 (stereo not drawn)
IC50 [1]: Not Active | IC50 (B16-F10; b16-f10): Not Active | IC50 (A549; a549): Not Active | IC50 ([2]; tw03): Not Active

O=C1/C(=C/c2ccc(Br)cc2)CC[C@@H]2[C@H]3CCCN4CCC[C@@H](CN12)[C@@H]34
IC50 [1, 3]: 0.7 µg/mL (≈ 1.69 µM) | IC50 (B16-F10; [4]): 2.6 µg/mL (≈ 6.26 µM) | IC50 (A549; [5]): 1.9 µg/mL (≈ 4.57 µM) | IC50 [2, 6]: 3.2 µg/mL (≈ 7.7 µM)

O=C1/C(=C/c2ccc(Cl)cc2)CC[C@@H]2[C@H]3CCCN4CCC[C@@H](CN12)[C@@H]34
IC50 [1, 3]: 1.6 µg/mL (≈ 4.31 µM) | IC50 (B16-F10; [4]): 3.9 µg/mL (≈ 10.5 µM) | IC50 (A549; [5]): 2.6 µg/mL (≈ 7.01 µM) | IC50 [2, 6]: 2.8 µg/mL (≈ 7.55 µM)

O=C(c1ccco1)C1CC[C@@H]2[C@H]3CCCN4CCC[C@@H](CN2C1=O)[C@@H]34 (stereo partly drawn)
IC50 [1, 3]: 11.8 µg/mL (≈ 34.5 µM) | IC50 (B16-F10; [4]): 12.9 µg/mL (≈ 37.7 µM) | IC50 (A549; [5]): 6.6 µg/mL (≈ 19.3 µM) | IC50 [2, 6]: 4.9 µg/mL (≈ 14.3 µM)

O=C1/C(=C/c2cccc([N+](=O)[O-])c2)CC[C@@H]2[C@H]3CCCN4CCC[C@@H](CN12)[C@@H]34
IC50 [1, 3]: 5.3 µg/mL (≈ 13.9 µM) | IC50 (B16-F10; [4]): 8.5 µg/mL (≈ 22.3 µM) | IC50 (A549; [5]): 7.6 µg/mL (≈ 19.9 µM) | IC50 [2, 6]: 2.4 µg/mL (≈ 6.29 µM)

O=C(c1ccccc1)C1CC[C@@H]2[C@H]3CCCN4CCC[C@@H](CN2C1=O)[C@@H]34 (stereo partly drawn)
IC50 [1, 3]: 4.3 µg/mL (≈ 12.2 µM) | IC50 (B16-F10; [4]): 10.6 µg/mL (≈ 30.1 µM) | IC50 (A549; [5]): 3.6 µg/mL (≈ 10.2 µM) | IC50 [2, 6]: 2.4 µg/mL (≈ 6.81 µM)

COC(=O)CCCC1NCC2CCCN3CCCC1C23 (stereo not drawn)
IC50 [1]: Not Active | IC50 (B16-F10; b16-f10): Not Active | IC50 (A549; [5]): 31.4 µg/mL (≈ 112 µM) | IC50 ([2]; tw03): Not Active

COc1cc2c(c(OC)c1OC)-c1ccc(OC)c(=O)cc1[C@@H](NC(C)=O)CC2 [COLCHICINE]
IC50 [1, 3]: 0.4 µg/mL (≈ 1 µM) | IC50 (B16-F10; [4]): 0.8 µg/mL (≈ 2 µM) | IC50 (A549; [5]): 0.2 µg/mL (≈ 0.501 µM) | IC50 [2, 6]: 1.3 µg/mL (≈ 3.25 µM)

O=C1/C(=C/c2ccc(F)cc2)CC[C@@H]2[C@H]3CCCN4CCC[C@@H](CN12)[C@@H]34
IC50 [1, 3]: 1.8 µg/mL (≈ 5.08 µM) | IC50 (B16-F10; [4]): 2.5 µg/mL (≈ 7.05 µM) | IC50 (A549; [5]): 3 µg/mL (≈ 8.46 µM) | IC50 [2, 6]: 1.9 µg/mL (≈ 5.36 µM)

CCOC(=O)CCCC1NCC2CCCN3CCCC1C23 (stereo not drawn)
IC50 [1]: Not Active | IC50 (B16-F10; b16-f10): Not Active | IC50 (A549; [5]): 32.3 µg/mL (≈ 110 µM) | IC50 ([2]; tw03): Not Active

O=C1/C(=C/c2ccncc2)CC[C@@H]2[C@H]3CCCN4CCC[C@@H](CN12)[C@@H]34
IC50 [1, 3]: 8.6 µg/mL (≈ 25.5 µM) | IC50 (B16-F10; [4]): 6.2 µg/mL (≈ 18.4 µM) | IC50 (A549; [5]): 5.7 µg/mL (≈ 16.9 µM) | IC50 [2, 6]: 4.4 µg/mL (≈ 13 µM)

NC(=O)CCCC1NCC2CCCN3CCCC1C23 (stereo not drawn)
IC50 [1, 3]: 11.4 µg/mL (≈ 43 µM) | IC50 (B16-F10; [4]): 12.9 µg/mL (≈ 48.6 µM) | IC50 (A549; [5]): 18.6 µg/mL (≈ 70.1 µM) | IC50 [2, 6]: 21.7 µg/mL (≈ 81.8 µM)
